Experimental data as given in PubChem BioAssay (NCI).
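Values below derive from 48-hour exposures of cells grown in 96-well plates, with endpoints linearly interpolated between the two concentrations bracketing the appropriate inhibition level. GI50 = concentration required for 50% inhibition of growth. At the TGI there is no net growth.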

What was measured:
Assay in all cases: inhibition of tumour cell growth, NCI panel, 48 h
[1] = tested on: SK-MEL-28 melanoma
[2] = tested on: NCI-H23 lung
[3] = tested on: SK-MEL-2 melanoma
[4] = tested on: MDA-MB-231 breast
[5] = tested on: UACC-257 melanoma
[6] = tested on: CCRF-CEM leukemia
[7] = tested on: U251 CNS
[8] = tested on: IGROV1 ovarian
[9] = tested on: SK-MEL-5 melanoma
[10] = tested on: KM12 colon

Row | Compound | GI50 [1] [µM] | TGI [1] [µM] | GI50 [2] [µM] | TGI [2] [µM] | GI50 [3] [µM] | TGI [3] [µM] | GI50 [4] [µM] | TGI [4] [µM] | GI50 [5] [µM] | TGI [5] [µM] | GI50 [6] [µM] | TGI [6] [µM] | GI50 [7] [µM] | TGI [7] [µM] | GI50 [8] [µM] | TGI [8] [µM] | GI50 [9] [µM] | TGI [9] [µM] | GI50 [10] [µM] | TGI [10] [µM]
1 | N#CSCc1c(Cl)cccc1Cl | 9.16 | > 100 | 5.41 | > 100 | 4.02 | > 100 | 3.43 | > 63.5 | 10.9 | > 81.3 | 0.323 | > 43.8 | 3.83 | > 100 | 2.69 | 7.2 | 4.5 | 21.2 | – | –
2 | CO[C@H]1C[C@@H]2CC[C@@H](C)[C@@](O)(O2)C(=O)C(=O)N2CCCC[C@H]2C(=O)O[C@H]([C@H](C)C[C@@H]2CC[C@@H](OP(C)(C)=O)[C@H](OC)C2)CC(=O)[C@H](C)/C=C(\C)[C@@H](O)[C@@H](OC)C(=O)[C@H](C)C[C@H](C)/C=C/C=C/C=C/1C | 11 | 23.8 | 11.1 | 29.1 | 2.31 | 22.4 | 12.4 | 27.7 | 3.21 | 21.8 | 8.17 | 52.4 | 0.0208 | 19.2 | < 0.01 | 18.3 | – | 18.4 | 11.1 | 25.3
3 | COc1ccc(/C=C/C(=O)c2ccc3cc(OC)c(OC)cc3c2)cc1OC | 11.2 | 32.3 | 6.9 | 32 | 11.5 | 31.6 | 6.19 | > 100 | 6.14 | 22.6 | 3.03 | 31.6 | 3.33 | 15.2 | 4.72 | 63.4 | 2.3 | 6.61 | 2.69 | 7.95
4 | Nc1ccn(C2CC(O)C(CO)O2)c(=O)n1 (stereo not drawn) | > 5000 | > 5000 | > 5000 | > 5000 | > 5000 | > 5000 | > 5000 | > 5000 | > 5000 | > 5000 | > 5000 | > 5000 | > 5000 | > 5000 | > 5000 | > 5000 | > 5000 | > 5000 | > 5000 | > 5000
5 | CCN(CC)CCCOc1cc(O)c2c(=O)cc(-c3ccccc3)oc2c1 | 3.42 | 17 | 11.4 | 23.4 | 10.1 | 27 | 6.54 | 18.9 | 3.4 | 12.5 | 10.4 | 26.8 | 10.6 | 22.4 | 6.17 | 22.1 | 3.16 | 11.8 | 11.7 | 33.3
6 | Nc1c(C(=O)c2cccc(CCC3(O)CCCC3)c2)cnn1-c1ccc(F)cc1 | > 22.9 | > 25 | 14.6 | > 25 | > 25 | > 25 | > 20.9 | > 25 | 10 | > 25 | 18.8 | > 25 | 14.2 | > 25 | > 25 | > 25 | 4.78 | 13.3 | 17.1 | > 25
7 | CC(=O)OC1CCC2(C)C(CCC3C4CC=C(C(C)=O)C4(C)OC(=O)CC32)C1 (stereo not drawn) | 1.74 | 3.27 | 2.9 | 10.6 | 2.91 | 8.42 | 2.05 | 4.33 | 1.42 | 2.98 | 1.3 | 4.87 | 10.1 | 21.8 | 2.88 | 10.3 | 2.13 | 4.95 | 9.83 | 22.7
8 | COC(=O)c1ccc2c(c1)C(=O)c1c-2n(CCCN)c(=O)c2cc([N+](=O)[O-])ccc12 | – | 0.81 | < 0.0318 | 1.28 | – | 0.519 | 0.426 | 0.96 | 0.234 | 1.23 | < 0.01 | 0.0759 | < 0.0127 | 0.368 | < 0.0156 | 0.352 | < 0.0405 | 0.8 | 0.0675 | 0.94
9 | C/C1=C\C/C=C(\C)[C@H]2CC(CC/C(C)=C/CC1)[C@@](C)(CO)O2 | > 100 | > 100 | > 100 | > 100 | 44.9 | > 100 | 54.9 | > 100 | > 100 | > 100 | 72.8 | > 100 | 84.2 | > 100 | 16 | 56.5 | 87.3 | > 100 | 62.7 | > 100
10 | ICCC(c1ccccc1)(c1ccccc1)c1ccccc1 | 3.4 | 12.5 | 13.4 | 31 | 4.18 | 13.7 | 4.41 | 19.8 | 1.7 | 3.35 | 3.56 | 16.3 | 3.48 | 11.3 | 4.17 | 16.6 | 3.23 | 11.2 | 4.45 | 15.4
11 | O=C(OCC1OC(OC(=O)c2cc(O)c(O)c(OC(=O)c3cc(O)c(O)c(O)c3)c2)C(OC(=O)c2cc(O)c(O)c(OC(=O)c3cc(O)c(O)c(O)c3)c2)C(OC(=O)c2cc(O)c(O)c(OC(=O)c3cc(O)c(O)c(O)c3)c2)C1OC(=O)c1cc(O)c(O)c(OC(=O)c2cc(O)c(O)c(O)c2)c1)c1cc(O)c(O)c(OC(=O)c2cc(O)c(O)c(O)c2)c1 (stereo not drawn) | > 50 | > 50 | 18.9 | > 50 | 20.6 | > 50 | 9.85 | 36.7 | 20.9 | > 50 | 18.2 | > 50 | 14.6 | > 50 | – | – | 10 | 27.9 | 7.23 | 27.1
12 | CC[C@H](C)[C@H](NC(=O)Nc1ccccc1)C(=O)N(C)[C@H](C[C@@H](OC(C)=O)c1nc(C(=O)N[C@@H](Cc2ccccc2)C[C@H](C)C(=O)OC)cs1)C(C)C | > 100 | > 100 | 5.8 | > 100 | 3.17 | > 100 | 3.36 | 22.1 | > 100 | > 100 | 2.25 | > 100 | 3.16 | > 100 | 3.28 | > 100 | 1.73 | 12.4 | 2.09 | > 100
